Results on one compound are retold here after patent US20030021856A1, “New use of ammonium compounds and/or urea” (priority 1996, published 2003).

A short description of data set [1]: Peroral self-administration of ammonium chloride by the inventor (respiratory gas exchange). To be noted: 80 mmoles ammonium chloride perorally. The class given is in vivo, human. From the text: Please replace the paragraph beginning at line 1 on page 5 with the following: portal area, especially at acidosis, can be utilized for synthesis of glutamine in the liver. […] When the patient treated is breathing by themself, the supply of ammonium will bring about a so-called compensatory hyperventilation. […] Furthermore, there is a report on the concentration of urea in the vitreous body of dead SIDS patients which is compared to autopsy material from children deceased from other causes at the same age [Blumenfeld T A, et al, Am J Clin Pathol, 71, 219-223 (1979)]. It appeared that children deceased from SIDS have lower urea values than children deceased from other causes. […] The low concentration of urea found is thus not inconsistent with the hypothesis put forward here.

The conditions of data set [2]: supplied intravenously and perorally; known by intensive care physicians; cited from earlier work.

Structures are written as SMILES.

Consider `Cl.N` [ammonium chloride], for which, in data set [1], the “duration of the increased carbon dioxide elimination” value is recorded as around 1 h, the effect on ventilation entry is “slight hyperventilation”, the “increase in elimination of carbon dioxide” value was 30 mL/min and the “resorption from the gastrointestinal tract” value is reported as “resorbed very quickly”. Also, in data set [1] (30 ml/min for nearly 1h), the “total carbon dioxide corresponding to the increased elimination” value was “about 80 mmoles”. In data set [1] (value at rest 0.82), the “RQ (Respiratory Quotient = carbon dioxide emission / oxygen gas uptake) after administration” value came out at 0.87. In addition, the “effect on base excess values” in data set [2] was “lowers base excess values”.
